This passage reports IC50 results from BindingDB's records for doi:10.1021/jm00111a038 (Ici Pharmaceuticals Group, 1991).

pIC50: −log10 of the molar value.

The test in a line: Inhibition of 5-lipoxygenase in human whole blood.

Consider `CCCCCCCCCCOc1cccc(C(O)c2ncc(C)[nH]2)c1` (stereo not drawn), for which the pIC50 – broadly, the negative decadic logarithm of the IC50, by convention in mol/L – was 5.20.
As for `Cc1cnc(C(O)c2cccc(OCc3ccc(-c4ccccc4)cc3)c2)[nH]1` (stereo not drawn), the figure is 5.15; as for `OC(c1cccc(OCc2ccc3ccccc3c2)c1)c1nccs1` (stereo not drawn), 5.29.
